Data from patent US20250230149A1, “MGLUR5 MODULATING COMPOUNDS, COMPOSITIONS, AND METHODS OF USE” (Allyx Therapeutics, Inc., priority 2022, published 2025).

Biological target: T1, CYP2C9 (Homo sapiens, UniProt P11712)
T1 construct: purchased
Test: CYP450 reaction phenotyping in Supersomes, CYP2C9
Format: in vitro ADME
Description: In Vitro CYP450 Reaction Phenotyping Study in Supersomes™ Over-Expressing Human CYP Enzymes
The CYPP450 enzymes involved in the Phase I metabolism of Compound 1 Form A were investigated in vitro. Compound 1 Form A was metabolized by CYP1A2, CYP2D6 and CYP3A4 and with T1/2 values of 64, 14, and 176 min, respectively, and CLint of 0.261, 0.984 and 0.0786 μL/min/pmol CYP, respectively. No evidence of Compound 1 metabolism by CYP2B6, CYP2C8, CYP2C9 and CYP2C19 was observed.

T1 sequence (P11712 whole entry): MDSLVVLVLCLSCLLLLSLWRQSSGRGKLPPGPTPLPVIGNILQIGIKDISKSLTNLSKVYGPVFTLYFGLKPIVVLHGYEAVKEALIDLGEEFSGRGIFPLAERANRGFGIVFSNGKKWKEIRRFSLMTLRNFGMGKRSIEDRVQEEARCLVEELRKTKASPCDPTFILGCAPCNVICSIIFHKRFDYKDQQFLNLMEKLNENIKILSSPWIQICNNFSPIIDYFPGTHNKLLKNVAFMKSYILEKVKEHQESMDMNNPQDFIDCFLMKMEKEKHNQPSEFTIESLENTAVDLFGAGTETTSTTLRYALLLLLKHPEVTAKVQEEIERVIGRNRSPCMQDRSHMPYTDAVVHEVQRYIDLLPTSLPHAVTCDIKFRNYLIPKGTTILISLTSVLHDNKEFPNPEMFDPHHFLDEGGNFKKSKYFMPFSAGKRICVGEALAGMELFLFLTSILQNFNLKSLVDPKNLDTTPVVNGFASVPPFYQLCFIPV

SMILES: O=C1N[C@H](c2cncc(C#Cc3ccccc3)c2)[C@@H](c2ccccc2Cl)O1 [Compound 1, (4R,5R)-5-(2-chlorophenyl)-4-(5-(phenylethynyl)pyridin-3-yl)oxazolidin-2-one]
- metabolism by CYP2C9: No evidence
